Legend:
[1] = Stability study under accelerated conditions (ICH guidelines); format: physicochemical; settings: three months
Procedure: The batch samples prepared under Example 1 were evaluated for stability under accelerated conditions under ICH guidelines and three months stability results are furnished in Table 4. Physical Examination Specification: Size 0 elongated hard gelatin capsule with an opaque white cap and a natural body. Capsules were substantially free from rough edges and spots and were filled with off white colored coated microcrystalline cellulose spheres.

[2] = cited from earlier work

degradation of itraconazole [1]: no significant degradation
SMILES: CCC(C)n1ncn(-c2ccc(N3CCN(c4ccc(OCC5COC(Cn6cncn6)(c6ccc(Cl)cc6Cl)O5)cc4)CC3)cc2)c1=O (racemic) [Itraconazole, (±)-cis-4-[4-[4-[4-[[2-(2,4-dichlorophenyl)-2-(1H-1,2,4-triazol-1-ylmethyl)-1,3-dioxolan-4-yl]methoxy]phenyl]-1-piperazinyl]phenyl]-2,4-dihydro-2-(1-methylpropyl)-3H-1,2,4-triazol-3-one]
0.1 N Hydrochloric acid solubility ([2]; 0.1 N Hydrochloric acid): < 6 micrograms per milliliter | water solubility ([2]; water): less than 1 microgram per milliliter
